Results: US20140154666A1, “Erythrocyte Preservation Method” (Trustees of Dartmouth College, priority 2012, published 2014)

Experiments:
[1] = test system: erythrocyte concentrate; assay: ATP content of erythrocyte concentrate after 42 days of refrigerated storage; format: cell-based; details: FIG. 2, samples 2032 and 2086, 99.9% by volume xenon gas, treated vs not treated
Text: (§1) Referring now to FIGS. 1-2, test results of two different erythrocyte concentrates are illustrated. The first erythrocyte concentrate is identified by, number 2032 and the second erythrocyte concentrate is identified by number 2086. Each of the samples was divided into four different containers. […] Also, for each sample, two of the containers included a gas system of 99.9% by volume xenon gas. The graphs indicate which container included or were absent xenon gas and/or DEHP plasticiser. The testing protocol for the containers was as follows:
(§2) For Containers That Are Absent Xe Gas:
(§3) a. Place non-Xe units flat on a rotator for 3.5 hours.
(§4) b. Place non-Xe units in blood bank refrigerator at the same time as the Xe units.
(§5) For Containers That Include Xe Gas:
(§6) a. Place Xe units flat in a pretested hyperatmic chamber.
(§7) b. Evacuate the chamber with vacuum to remove oxygen from the Xe units.
(§8) c. Pressurize the chamber with Xe gas at 4 atm.
(§9) d. Vent the chamber of Xe gas.
(§10) e. Pressurize the chamber with Xe gas at 4 atm.
(§11) f Vent the chamber of Xe gas.
(§12) g. Pressurize the chamber with Xe gas at 4 atm.
(§13) h. Vent the chamber of Xe gas.
(§14) i. Pressurize the chamber with Xe gas at 4 atm.
(§15) j. Place the pressurized Xe unit on an agitator for 3.5 h.
k. Place the pressurized Xe unit in a blood bank refrigerator at the same time as the non-Xe units. […]

[2] = test system: erythrocyte concentrate; assay: Hemolysis of erythrocyte concentrate after 42 days of refrigerated storage; format: cell-based; details: FIG. 1
Text: as §1, §2, §3, §4, §5, §6, §7, §8, §9, §10, §11, §12, §13, §14, §15
k. Place the pressurized Xe unit in a blood bank refrigerator at the same time as the non-Xe units.
While the Xe units and non-Xe units are in the blood bank refrigerator, the Xe units were periodically checked over a 42 day period to ensure that the pressure in the Xe units exceeded 1 atm. After 42 days, all of the units were removed from the blood bank refrigerator. After the units were removed from the blood bank refrigerator, the following procedures where conducted on the units:
1. Immediately place the pressurized Xe units and non-Xe units on a platelet to and-fro horizontal agitator for 10 minutes.
2. Depressurize all of the units by opening a value on the container.
3. Place all units on a bench top and hold for 3 hours.
4. Following the 3 hour hold period, test the samples for percentage of hemolysis and the ATP content.

[3] = test system: erythrocyte concentrate; details: presence of DEHP plasticizer in the storage container; cited from earlier work

| SMILES | ATP content in the erythrocyte concentrate [1] | amounts of hemolysis ([2]; 42 days, xenon gas with no DEHP plasticiser vs container with DEHP plasticiser and no xenon gas) | percent of hemolysis ([2]; samples 2032 and 2086, 99.9% by volume xenon gas at 4 atm, 42 days in blood bank refrigerator, treated vs not treated with xenon gas) | number of erythrocytes that lysed during the storage of the erythrocyte concentrate [3] | hemolysis ([2]; 42 days, DEHP plasticiser added to a container that included xenon gas) | amounts of hemolysis ([2]; 42 days, containers that include DEHP plasticiser vs containers without) |
| --- | --- | --- | --- | --- | --- | --- |
| [Xe] [xenon gas, Xenon] | higher ATP content | lower amounts of hemolysis | significantly less |  |  |  |
| CCCCC(CC)COC(=O)c1ccccc1C(=O)OCC(CC)CCCC (stereo not drawn) [DEHP plasticiser, his (2-ethylhexyl) phthalate] |  |  |  | reduces the number of erythrocytes that lysed | further reduction of hemolysis | Reduced amounts of hemolysis |
